According to article PMC6821926, “Diaminoquinazoline MMV675968 from Pathogen Box inhibits Acinetobacter baumannii growth through targeting of dihydrofolate reductase” (Scientific Reports, 2019):

Experiments:
Type in all cases: biochemical
[1] = target: T1, A. baumannii dihydrofolate reductase (AbDHFR) (Acinetobacter baumannii, UniProt A0A098SJI9); assay: DHFR activity assay (A340) in lysate of E. coli BL21(DE3) overexpressing AbDHFR; also E. coli surrogate growth and DHFR activity in treated A. baumannii
T1 construct: gene folA; AbDHFR expressed from pET15b in E. coli BL21(DE3)

human DHFR (hDHFR) = target: T2, human DHFR (hDHFR) (Homo sapiens, UniProt P00374); assay: DHFR activity assay (A340) in lysate of E. coli BL21(DE3) overexpressing hDHFR
T2 construct: hDHFR (from pL0035) expressed from pET15b in E. coli BL21(DE3)
T2 sequence (P00374 1-187): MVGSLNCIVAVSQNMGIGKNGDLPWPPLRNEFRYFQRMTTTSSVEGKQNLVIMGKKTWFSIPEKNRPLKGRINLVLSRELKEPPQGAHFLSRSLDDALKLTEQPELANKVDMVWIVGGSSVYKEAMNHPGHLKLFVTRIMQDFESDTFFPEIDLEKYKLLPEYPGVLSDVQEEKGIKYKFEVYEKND

[2] = target: T1, A. baumannii dihydrofolate reductase (AbDHFR); assay: DHFR activity assay (A340) in lysate of E. coli BL21(DE3) overexpressing AbDHFR

T1 sequence (A0A098SJI9 entry or part of it): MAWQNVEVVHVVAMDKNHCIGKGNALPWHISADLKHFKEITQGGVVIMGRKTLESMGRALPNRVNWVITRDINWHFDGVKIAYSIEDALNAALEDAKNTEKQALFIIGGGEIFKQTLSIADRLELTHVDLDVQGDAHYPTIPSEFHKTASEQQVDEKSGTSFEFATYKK

SMILES	IC50 [1] [nM]	IC50 (human DHFR (hDHFR)) [nM]	IC50 [2] [nM]
COc1ccc(OC)c(NCc2ccc3nc(N)nc(N)c3c2Cl)c1 [MMV675968]	8.5	492	
CCc1nc(N)nc(N)c1-c1ccc(Cl)cc1 [PYR, pyrimethamine]			81.7
